Data: PubChem BioAssay (NCI)
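Five concentrations, 48 hours, 96-well plates. TGI is the concentration that stops growth completely.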

Columns and labels:
Assay in all cases: NCI tumour cell line growth inhibition, 48 h
[1] = tested on: UACC-257 melanoma
[2] = tested on: DMS 273 small cell lung
[3] = tested on: MCF7 breast
[4] = tested on: M19-MEL melanoma
[5] = tested on: NCI-H23 lung
[6] = tested on: COLO 205 colon
[7] = tested on: SNB-78 CNS
[8] = tested on: OVCAR-5 ovarian
[9] = tested on: A549 NSCLC
[10] = tested on: HOP-18 NSCLC
[11] = tested on: OVCAR-3 ovarian
[12] = tested on: P388/ADR leukemia
[13] = tested on: CAKI-1 renal
[14] = tested on: DMS 114 small cell lung
[15] = tested on: HCC-2998 colon
[16] = tested on: SK-OV-3 ovarian
[17] = tested on: RPMI-8226 leukemia
[18] = tested on: NCI-H226 lung
[19] = tested on: OVCAR-8 ovarian
[20] = tested on: NCI-H522 lung
[21] = tested on: SNB-19 CNS
[22] = tested on: KM12 colon
[23] = tested on: K-562 leukemia
[24] = tested on: CCRF-CEM leukemia
[25] = tested on: OVCAR-4 ovarian
[26] = tested on: SK-MEL-28 melanoma
[27] = tested on: NCI/ADR-RES ovarian
[28] = tested on: NCI-H460 lung
[29] = tested on: EKVX NSCLC
[30] = tested on: SK-MEL-5 melanoma
[31] = tested on: UACC-62 melanoma
[32] = tested on: UO-31 renal
[33] = tested on: HCT-15 colon
[34] = tested on: SK-MEL-2 melanoma
[35] = tested on: SW-620 colon
[36] = tested on: SN12C renal
[37] = tested on: SN12K1 renal
[38] = tested on: U251 CNS
[39] = tested on: HCT-116 colon
[40] = tested on: DLD-1 colon
[41] = tested on: LOX IMVI melanoma
[42] = tested on: RXF 393 renal
[43] = tested on: IGROV1 ovarian
[44] = tested on: SF-268 CNS
[45] = tested on: KM20L2 colon
[46] = tested on: SNB-75 CNS
[47] = tested on: XF 498 CNS
[48] = tested on: HL-60(TB) leukemia
[49] = tested on: HT29 colon
[50] = tested on: P388 leukemia
[51] = tested on: MALME-3M melanoma
[52] = tested on: HOP-92 NSCLC
[53] = tested on: MOLT-4 leukemia
[54] = tested on: SF-539 CNS
[55] = tested on: SF-295 CNS
[56] = tested on: A498 renal
[57] = tested on: M14 melanoma
[58] = tested on: ACHN renal
[59] = tested on: TK-10 renal
[60] = tested on: LXFL 529 NSCLC
[61] = tested on: HOP-62 NSCLC
[62] = tested on: 786-0 renal
[63] = tested on: RXF-631 renal

Measured: TGI

CN(CCO)/N=N/c1[nH]ncc1C(N)=O
not listed: [57] | [58] | [59] | [60] | [61] | [62] | [63]
> 100 µM: all other assays above

COC(=O)C1CC(C(=O)OC)c2nc3cc(C)c(C)cc3nc21 (configuration not stated)
not listed: [3] | [12] | [27] | [37] | [39] | [42] | [50]
> 100 µM: all other assays above
